Residues, ends and D or L forms follow the SMILES beside them.
System: ischemic myocardium
Experiment: Inotropic function and arrhythmias of ischemic isolated rat heart during reperfusion
Conditions: for Number of Ventricular Extrasystoles / Overall Duration of Ventricular Fibrillation / Overall Duration of Ventricular Tachycardia: 30-minute reperfusion
Text: Rat hearts were surgically isolated from white random-bred rats weighing approximately 250 g. The isolated hearts were perfused with a standard oxygenated (95% O2 and 5% CO2) Krebs-Henseleit solution in a retrograde manner (i.e., according to Langendorff and using a constant perfusate pressure of 80 cm of water). The hearts maintained a steady spontaneous contraction rate. A latex balloon catheter connected to a pressure transducer (EMT-746, Siemens-Elema, Sweden) was inserted into the left ventricle of each heart to measure the inotropic function of the heart (as described in Example 3, above). The left ventricle pressure variation curve was recorded using a polygraph.
Stage I ("adaptation regimen") consisted of a 30-minute adaptation of the respective rat hearts to the perfusion regimen. The baseline parameters for the inotropic function of each heart were recorded to establish the preischemic values for the following measured parameters: (i) the systolic pressure in the left ventricle (Psyst. mm Hg); (ii) the diastolic pressure in the left ventricle (Pdiast. mm Hg); (iii) the evolving pressure (Pev. =Psyst. -Pdist. mm Hg); (iv) the maximal rate of increase of left ventricle pressure (+dp/dtmax mm Hg/sec); and (v) the maximal rate of decrease of left ventricle pressure (-dp/dtmax mm Hg/sec). In addition, the heart rate (HR) of each heart was determined from the recordings made of the variations in the left ventricle pressure over time. In Stage II ("ischemic simulation"), ischemia was induced in each heart by shutting off the supply of the perfusion solution to the heart. Approximately 30 minutes later, Stage III ("reperfusion regimen") was initiated by restarting the reperfusion and including in the perfusate solution a test or control substance at one of the following respective concentrations: a perfusate solution of a test substance comprised 0.06, 0.6, or 6.0 mg/l GE, or 0.06, 0.6, or 6.0 mg/l VT, respectively; a perfusate solution of the positive control substance comprised 14 mg/l inosine. Inosine is a nucleoside preparation that produces a favorable inotropic effect on both normal and ischemic myocardium while inducing no rhythm disturbances or acceleration of ischemic contracture development. Woollard et al., Cardiovasc. Res. 15: 659-67 (1981). Inosine was obtained from Sigma Chemical Company, USA (Cat. Code I-4125; lot number 81H0227). The negative control substance comprised reperfusion using a standard oxygenated Krebs-Henseleit solution.
For each heart, the inotropic function of the myocardium was evaluated by measuring the parameters (i) through (v), discussed above, and the heart rate. These six parameters were recorded continuously throughout the study (i.e., beginning with Stage I and continuing through Stage III). The recordings were analyzed at the following times: (a) immediately before beginning Stage II (that is, after the 30-minute Stage I adaptation period, but before stopping perfusion); and (b) at 1, 5, 10, 20, and 30 minutes into the Stage III reperfusion.
The frequency and duration of rhythm disturbances in the 30-minute Stage III reperfusion period were determined by measuring the following parameters: (i) the number of ventricular extrasystoles; (ii) the overall duration of ventricular tachycardias (in seconds); and (iii) the overall duration of ventricular fibrillation (in seconds). Each dose of the test substance was tested on nine isolated hearts.

NCC(=O)N[C@@H](CCC(=O)O)C(=O)O [GE, L-Glycyl-L-Glutamic acid] (H-Gly-Glu-OH)
Number of Ventricular Extrasystoles (0.06 mg/l): 182.2 | Overall Duration of Ventricular Fibrillation (0.06 mg/l): 0 s | Overall Duration of Ventricular Tachycardia (0.06 mg/l): 2.1 s | Diastolic Pressure in Ischemic Left Ventricle (% of Preischemic Mean Value) (0.06 mg/l, 1 min reperfusion): 95.96% | Evolving Pressure in Ischemic Left Ventricle (% of Preischemic Mean Value) (0.06 mg/l, 1 min reperfusion): 117.70% | Heart Rate during Reperfusion (% of Preischemic Mean Value) (0.06 mg/l, 1 min reperfusion): 69.09% | Maximal Rate of Increase of Left Ventricle Pressure (% of Preischemic Mean Value) (0.06 mg/l, 1 min reperfusion): 127.30% | Maximal Rate of Left Ventricle Pressure Decrease (% of Preischemic Mean Value) (0.06 mg/l, 1 min reperfusion): 86.91% | Systolic Pressure in Ischemic Left Ventricle (% of Preischemic Values) (0.06 mg/l, 1 min reperfusion): 115.11% | Diastolic Pressure in Ischemic Left Ventricle (% of Preischemic Mean Value) (0.06 mg/l, 5 min reperfusion): 124.53% | Evolving Pressure in Ischemic Left Ventricle (% of Preischemic Mean Value) (0.06 mg/l, 5 min reperfusion): 92.58% | Heart Rate during Reperfusion (% of Preischemic Mean Value) (0.06 mg/l, 5 min reperfusion): 91.94% | Maximal Rate of Increase of Left Ventricle Pressure (% of Preischemic Mean Value) (0.06 mg/l, 5 min reperfusion): 98.87% | Maximal Rate of Left Ventricle Pressure Decrease (% of Preischemic Mean Value) (0.06 mg/l, 5 min reperfusion): 89.27% | Systolic Pressure in Ischemic Left Ventricle (% of Preischemic Values) (0.06 mg/l, 5 min reperfusion): 98.86% | Diastolic Pressure in Ischemic Left Ventricle (% of Preischemic Mean Value) (0.06 mg/l, 10 min reperfusion): 128.57% | Evolving Pressure in Ischemic Left Ventricle (% of Preischemic Mean Value) (0.06 mg/l, 10 min reperfusion): 86.19% | Heart Rate during Reperfusion (% of Preischemic Mean Value) (0.06 mg/l, 10 min reperfusion): 93.44% | Maximal Rate of Increase of Left Ventricle Pressure (% of Preischemic Mean Value) (0.06 mg/l, 10 min reperfusion): 87.39% | Maximal Rate of Left Ventricle Pressure Decrease (% of Preischemic Mean Value) (0.06 mg/l, 10 min reperfusion): 82.04% | Systolic Pressure in Ischemic Left Ventricle (% of Preischemic Values) (0.06 mg/l, 10 min reperfusion): 89.79% | Diastolic Pressure in Ischemic Left Ventricle (% of Preischemic Mean Value) (0.06 mg/l, 20 min reperfusion): 134.92% | Evolving Pressure in Ischemic Left Ventricle (% of Preischemic Mean Value) (0.06 mg/l, 20 min reperfusion): 74.40% | Heart Rate during Reperfusion (% of Preischemic Mean Value) (0.06 mg/l, 20 min reperfusion): 72.87% | Maximal Rate of Increase of Left Ventricle Pressure (% of Preischemic Mean Value) (0.06 mg/l, 20 min reperfusion): 87.39% | Maximal Rate of Left Ventricle Pressure Decrease (% of Preischemic Mean Value) (0.06 mg/l, 20 min reperfusion): 75.11% | Systolic Pressure in Ischemic Left Ventricle (% of Preischemic Values) (0.06 mg/l, 20 min reperfusion): 84.10% | Diastolic Pressure in Ischemic Left Ventricle (% of Preischemic Mean Value) (0.06 mg/l, 30 min reperfusion): 91.20% | Evolving Pressure in Ischemic Left Ventricle (% of Preischemic Mean Value) (0.06 mg/l, 30 min reperfusion): 68.73% | Heart Rate during Reperfusion (% of Preischemic Mean Value) (0.06 mg/l, 30 min reperfusion): 68.67% | Maximal Rate of Increase of Left Ventricle Pressure (% of Preischemic Mean Value) (0.06 mg/l, 30 min reperfusion): 70.93% | Maximal Rate of Left Ventricle Pressure Decrease (% of Preischemic Mean Value) (0.06 mg/l, 30 min reperfusion): 66.02% | Systolic Pressure in Ischemic Left Ventricle (% of Preischemic Values) (0.06 mg/l, 30 min reperfusion): 72.11% | Number of Ventricular Extrasystoles (0.6 mg/l): 168.5 | Overall Duration of Ventricular Fibrillation (0.6 mg/l): 44.3 s | Overall Duration of Ventricular Tachycardia (0.6 mg/l): 22.2 s | Diastolic Pressure in Ischemic Left Ventricle (% of Preischemic Mean Value) (0.6 mg/l, 1 min reperfusion): 69.70% | Evolving Pressure in Ischemic Left Ventricle (% of Preischemic Mean Value) (0.6 mg/l, 1 min reperfusion): 71.90% | Heart Rate during Reperfusion (% of Preischemic Mean Value) (0.6 mg/l, 1 min reperfusion): 52.28% | Maximal Rate of Increase of Left Ventricle Pressure (% of Preischemic Mean Value) (0.6 mg/l, 1 min reperfusion): 71.21% | Maximal Rate of Left Ventricle Pressure Decrease (% of Preischemic Mean Value) (0.6 mg/l, 1 min reperfusion): 53.56% | Systolic Pressure in Ischemic Left Ventricle (% of Preischemic Values) (0.6 mg/l, 1 min reperfusion): 74.01% | Diastolic Pressure in Ischemic Left Ventricle (% of Preischemic Mean Value) (0.6 mg/l, 5 min reperfusion): 113.42% | Evolving Pressure in Ischemic Left Ventricle (% of Preischemic Mean Value) (0.6 mg/l, 5 min reperfusion): 83.73% | Heart Rate during Reperfusion (% of Preischemic Mean Value) (0.6 mg/l, 5 min reperfusion): 85.30% | Maximal Rate of Increase of Left Ventricle Pressure (% of Preischemic Mean Value) (0.6 mg/l, 5 min reperfusion): 84.14% | Maximal Rate of Left Ventricle Pressure Decrease (% of Preischemic Mean Value) (0.6 mg/l, 5 min reperfusion): 79.56% | Systolic Pressure in Ischemic Left Ventricle (% of Preischemic Values) (0.6 mg/l, 5 min reperfusion): 90.02% | Diastolic Pressure in Ischemic Left Ventricle (% of Preischemic Mean Value) (0.6 mg/l, 10 min reperfusion): 95.24% | Evolving Pressure in Ischemic Left Ventricle (% of Preischemic Mean Value) (0.6 mg/l, 10 min reperfusion): 86.63% | Heart Rate during Reperfusion (% of Preischemic Mean Value) (0.6 mg/l, 10 min reperfusion): 77.07% | Maximal Rate of Increase of Left Ventricle Pressure (% of Preischemic Mean Value) (0.6 mg/l, 10 min reperfusion): 88.69% | Maximal Rate of Left Ventricle Pressure Decrease (% of Preischemic Mean Value) (0.6 mg/l, 10 min reperfusion): 87.20%

From US5972894A, “Peptides having potassium channel opener activity” (Cytran, Inc., priority 1997, dated 1999)
